Test results reported in PMC10418970, “Effective and Selective Ru(II)-Arene Complexes Containing 4,4′-Substituted 2,2′ Bipyridine Ligands Targeting Human Urinary Bladder Cancer Cells” (International Journal of Molecular Sciences, 2023).
pIC50: −log10 of the molar value.

Columns and labels:
EB-CTDNA adduct = assay: EB/CTDNA fluorescence competition (quenching); assay type: binding, calf; details: [DNA] 5 μM, [EB] 5 μM, complex 0-50 μM
Procedure: To learn more about the binding properties of 1–7 with CTDNA, the fluorescence competition technique is employed. EB is an orange fluorescent dye and an intercalating agent for DNA.
3.2 Fluorescence titration experiments
The displacement of the EB-bound was obtained by
treated with a saturating ethidium bromide 5 µM.
Figure S5. […] [DNA]= 5 µM,
[EB] = 5 µM and [complex] = 0˗50 µM. […]

[1] = biological target: T1, Bovine serum albumin (BSA) (Bos taurus, UniProt P02769); assay: BSA fluorescence titration (Stern-Volmer, Scatchard); assay type: binding; details: for number of binding sites (n) on BSA: Scatchard equation; for BSA quenching constant Kq: [BSA] 1 μM, complex 0-20 μM, phosphate buffer pH 7.2
T1 construct: purchased Sigma Aldrich
T1 sequence (P02769 25-607): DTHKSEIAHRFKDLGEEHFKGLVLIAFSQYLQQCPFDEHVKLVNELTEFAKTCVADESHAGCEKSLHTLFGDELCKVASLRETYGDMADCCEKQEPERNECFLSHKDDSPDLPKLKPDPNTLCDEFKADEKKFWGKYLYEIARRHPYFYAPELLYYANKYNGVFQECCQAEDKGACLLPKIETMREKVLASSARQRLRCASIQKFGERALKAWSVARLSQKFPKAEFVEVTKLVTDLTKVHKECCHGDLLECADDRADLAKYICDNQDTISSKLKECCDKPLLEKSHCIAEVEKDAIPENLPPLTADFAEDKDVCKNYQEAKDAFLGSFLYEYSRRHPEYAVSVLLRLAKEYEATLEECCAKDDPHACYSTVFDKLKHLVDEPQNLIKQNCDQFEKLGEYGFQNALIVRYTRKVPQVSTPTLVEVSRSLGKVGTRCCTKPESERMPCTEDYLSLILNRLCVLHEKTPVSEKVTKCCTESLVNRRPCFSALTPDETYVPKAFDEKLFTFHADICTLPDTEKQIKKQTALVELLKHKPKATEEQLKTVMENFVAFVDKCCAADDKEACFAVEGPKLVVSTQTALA
From the text: To explore the mode of complex-protein interaction, we monitor the BSA fluorescence quenching at […] by addition of increasing amounts of 1–7 to a fixed quantity of BSA (Figure S7). […] The molar absorptivity of tyrosine and phenylalanine are 10- and 200-fold weaker than tryptophan, respectively, and are ignored in the modelling. […] The complex binding-induced fluorescence quenching is described by the linear Stern–Volmer relationship (Figure 12A) to obtain the quenching constant Kq (see SI for details). Further, the equilibrium binding constant (Kb) of the complex to BSA and the number of binding sites (n) are obtained by casting the fluorescence intensity in the absence of quencher (F^0) and quencher concentration [Q] dependent F into the Scatchard equation [35]: log [(F^0− F)/F] = log Kb + n log[Q], as shown in Figure 12B.
4 Interaction of complexes with Bovine serum albumin
4.1 Fluorescence titration
The interaction of complexes with BSA was studied using fluorescence spectra, recorded at a fixed excitation wavelength corresponding to BSA at 280 nm and monitoring the emission at 335 nm. Stock solution of BSA were prepared by dissolving commercial BSA in 50mM phosphate buffer (pH 7.2) and stored at 4 οC for further use.
Concentrated stock solution of each test compound were prepared by dissolving it in DMF-phosphate buffer (5:95) and diluted with phosphate buffer to get required concentrations. For the fluorescence measurements, 2.5 mL solution of BSA was titrated with successive additions of […] stock solution of complexes (0-20 µM) […]
Figure S7. Fluorescence quenching curves of BSA in the absence and presence of complexes 1-7. […]

[2] = system: MCF-10a-breast epithelial cells; assay: MTT cell proliferation assay, MCF-10a; assay type: cell-based, human; details: 24 h incubation; healthy cells
Vero cells = assay: MTT cell proliferation assay, Vero; assay type: cell-based, African green monkey; details: 24 h incubation; healthy cells
[3] = system: EA.hy926 endothelial cells; assay: MTT cell proliferation assay, EA.hy926; assay type: cell-based, human; details: 24 h incubation
HepG-2-hepatic cells = assay: MTT cell proliferation assay, HepG-2; assay type: cell-based, human; details: 24 h incubation
T24-bladder cells = assay: MTT cell proliferation assay, T24; assay type: cell-based, human; details: 24 h incubation
[4] = Shake-flask water-octanol Log p; details: n-octanol / water containing 0.45% sodium chloride, 0.5 mM, 37 °C
Procedure: The complex was dissolved in a mixture with equal volumes of pre-saturated n-octanol and water to a final concentration of 0.5 mM. The mixture was shaken at 250 rpm for 24 h at 37 °C and then centrifuged at 3000 rpm for 10 min. The complex concentration (C) in each phase was measured by UV-Vis spectroscopy and used to calculate Log p, according to the formula Log p = log (Coctanol/Cwater).

T24 cells = assay: Flow cytometry FITC Annexin V apoptosis assay; assay type: cell-based, human; details: at IC50 concentration (1: […]; 2: 14.5 μM)
Procedure: Figure S10. Cytotoxic effects of complexes ( 1-7) against (A) EA.hy-926, (B) HepG-2, (C) T24, (D) normal kidney (Vero) cells
and (E) MCF-10a-breast epithelial . Data expressed in SD±mean with three replicates.
After 24 h incubation, control and treated cells were stained with acriddine
orange (AO)/ethidium bromide (EB) and incubated for 10 min. The images were taken immediately under fluorescent
8. Flow cytometry studies
The cell apoptotic rate was determined by flow cytometry analysis with the fluorescein isothiocyanate (FITC)
Annexin V apoptosis detection kit (Multi Sciences, China). T24 cancer cells were collected by trypsinization, washed
twice and resuspended in […], 1 × binding buffer with […] of FITC Annexin V and […] of PI. After incubation for
15 min, the samples were subjected to analysis by flow cytometry. The results were analysed with the BD FACS Calibur™
(1 picture or pasted object on this page, not shown here)

Row | SMILES | Stern–Volmer quenching constant Kq (EB/CTDNA) (EB-CTDNA adduct) | apparent DNA binding constant Kapp (EB-CTDNA adduct) | number of binding sites (n) on BSA [1] | BSA quenching constant Kq [1] | pIC50 [2] | pIC50 (Vero cells) | pIC50 [3] | pIC50 (HepG-2-hepatic cells) | pIC50 (T24-bladder cells) | Log p Exp. Shake Flask [4] | apoptotic rate (late + early) (T24 cells) [%] | early apoptosis (Q3) (T24 cells) [%] | late apoptosis (Q2) (T24 cells) [%] | solubility (Solubility (observation))
1 | CCOC(=O)c1ccnc(-c2cc(C(=O)OCC)ccn2)c1.[Cl-].[Cl-].[Ru+2].c1ccccc1 [Complex 7, [Ru-η^6-benzene-(4,4′-(COOC2H5)2bipy)Cl]Cl] | 7.21 10^4 M^−1 | 3.61 10^6 M^−1 | 1.1 | 4.779 × 10^4 10^4 M^−1 | < 4.30 | 4.47 | 4.62 | 4.38 | 4.70 | −0.14 |  |  |  | 
2 | CC(C)(C)c1ccnc(-c2cc(C(C)(C)C)ccn2)c1.[Cl-].[Cl-].[Ru+2].c1ccccc1 [Complex 5, [Ru-η^6-benzene-(4,4′-(C4H9)2bipy)Cl]Cl] |  |  |  |  |  |  |  |  |  | 2.45 |  |  |  | 
3 | N.N.[Cl][Pt][Cl] [Cisplatin, reference compound] |  |  |  |  | 4.54 | 4.47 | 4.64 | 4.31 | < 4.30 |  |  |  |  | 
4 | COC(=O)c1ccnc(-c2cc(C(=O)OC)ccn2)c1.[Cl-].[Cl-].[Ru+2].c1ccccc1 [Complex 6, [Ru-η^6-benzene-(4,4′-(COOCH3)2bipy)Cl]Cl] | 6.69 10^4 M^−1 | 3.34 10^6 M^−1 | 1.0 | 3.103 × 10^4 10^4 M^−1 | < 4.30 | 4.31 | 4.31 | 4.84 | 4.39 | −1.12 |  |  |  | 
5 | CCOC(=O)c1ccnc(-c2cc(C(=O)OCC)ccn2)c1.Cc1ccc(C(C)C)cc1.[Cl-].[Cl-].[Ru+2] [Complex 4, [Ru-η^6-p-cymene-(4,4′-(COOC2H5)2bipy)Cl]Cl] | 6.36 10^4 M^−1 | 3.18 10^6 M^−1 | 1.0 | 3.777 × 10^4 10^4 M^−1 | 4.40 | 4.51 | 4.49 | 4.68 | 4.91 | 0.88 |  |  |  | 
6 | Cc1ccc(C(C)C)cc1.O=C(O)c1ccnc(-c2cc(C(=O)O)ccn2)c1.[Cl-].[Cl-].[Ru+2] [Complex 2, [Ru-η^6-p-cymene-(4,4′-(COOH)2bipy)Cl]Cl] | 4.89 10^4 M^−1 |  | 1.2 | 6.446 × 10^4 10^4 M^−1 | < 4.30 | < 4.30 | < 4.30 | < 4.30 | 4.84 | −1.65 | 18.24 | 10.9 | 7.34 | more soluble in high polar organic solvents
7 | COC(=O)c1ccnc(-c2cc(C(=O)OC)ccn2)c1.Cc1ccc(C(C)C)cc1.[Cl-].[Cl-].[Ru+2] [Complex 3, [Ru-η^6-p-cymene-(4,4′-(COOCH3)2bipy)Cl]Cl] | 6.05 10^4 M^−1 | 3.02 10^6 M^−1 | 1.0 | 3.622 × 10^4 10^4 M^−1 | < 4.30 | 4.34 | 4.51 | < 4.30 | 4.67 |  |  |  |  | 
